Values quoted from earlier work as cited in paper PMC5063953 (Biochemical Pharmacology, 2016).
Like-named read-outs stand apart in the source and are kept apart here. No end group written: not given here.

Key:
hCLR-RAMP1 = details: cited from earlier work
hCLR-RAMP2 = details: ref [60], cited from earlier work
hCLR-RAMP3 = details: ref [60], cited from earlier work
SecR = details: R2.46A; ref [17]; cited from earlier work
rSecR = details: ref [14], cited from earlier work
hSecR = details: cited from earlier work
hCRF-1R = details: ref [44], cited from earlier work
rGCGR = details: ref [52], cited from earlier work
hGCGR = details: ref [15], cited from earlier work
hVPAC2R = details: ref [35], cited from earlier work
hVPAC1R = details: cited from earlier work
oPTH-1R = details: ref [57], cited from earlier work

Q: Which results are given for calcitonin gene related peptide [CGRP]?
A: Effect compared with WT: cAMP potency (hCLR-RAMP1; E7.63A, ref [59]): Reduced CGRP-mediated cAMP potency; Effect compared with WT: cAMP pEC50 (hCLR-RAMP1; H5.40A, ref [59]): Reduced CGRP-mediated cAMP pEC50; Effect compared with WT: cAMP production (hCLR-RAMP1; K3.30A, ref [59]): No effect on CGRP mediated cAMP production; Effect compared with WT: cAMP production (hCLR-RAMP1; K6.37A, ref [10]): No effect on CGRP mediated cAMP production; Effect compared with WT: affinity or cAMP production (hCLR-RAMP1; N2.52A, ref [59]): No effect on CGRP affinity or cAMP production; Effect compared with WT: cAMP production (hCLR-RAMP1; N5.56A, ref [59]): No effect on CGRP cAMP mediated production; Effect compared with WT: cAMP potency (hCLR-RAMP1; R2.46A, ref [59]): Reduced CGRP mediated cAMP potency.; Effect compared with WT: cAMP pEC50 (hCLR-RAMP1; R4.64A, ref [59]): Reduced CGRP mediated cAMP pEC50.; function upon mutation of R4.64, in words (hCLR-RAMP1; R4.64 mutated, ref [60], [63]): not CGRP function; reduction in affinity compared with WT (hCLR-RAMP1; R6.40A, ref [10]): 5 fold; reduction in cAMP production compared with WT (hCLR-RAMP1; R6.40A, ref [10]): 30 fold

Q: Which “Effect compared with WT: cAMP production” value (hCLR-RAMP2; K3.30A) does the source give for “adrenomedullin: agonist at CLR-RAMP2 or CLR-RAMP3 complexes (YRQSMNNFQGLRSFGCRFGTCTVQKLAHQIYQFTDKDKDNVAPRSKISPQGY; ends and bridges not checked; cysteine pairing not given here; UniProt P35318 95-146, looked up)” here?
A: Its value is “Reduced adrenomedullin cAMP production”.

Q: And the “Effect compared with WT: cAMP production” value (hCLR-RAMP2; R4.64A)?
A: The value was “Reduced adrenomedullin mediated cAMP production”.

Q: And the “function upon mutation of R4.64, in words” value (hCLR-RAMP2; R4.64 mutated, [63])?
A: The value was “altered adrenomedullin function”.

Q: And the “Effect compared with WT: cAMP production” value (hCLR-RAMP3; K3.30A)?
A: Its value is “Reduced adrenomedullin cAMP production”.

Q: And the “Effect compared with WT: cAMP production” value (hCLR-RAMP3; R4.64A)?
A: The value was “Reduced adrenomedullin mediated cAMP production”.

Q: What about the “function upon mutation of R4.64, in words” value (hCLR-RAMP3; R4.64 mutated, [63]) of the same molecule?
A: Its value is “altered adrenomedullin function”.

Q: Which results are given for “secretin: agonist of the secretin receptor”?
A: Effect compared with WT: cAMP potency (SecR): not cAMP potency; Effect compared with WT: calcium potency (SecR): Decreased secretin mediated calcium potency; Effect compared with WT: cAMP production (rSecR; R3.30A): Reduced secretin-mediated cAMP production; Effect compared with WT: cAMP potency (rSecR; R4.64A): Decreased secretin mediated cAMP potency.; Effect compared with WT: affinity or receptor expression (hSecR; R6.37A/K6.40A, ref [17]): no effect on affinity or receptor expression; Effect compared with WT: cAMP and calcium (hSecR; R6.37A/K6.40A, ref [17]): Reduced secretin mediated cAMP and calcium; Effect compared with WT: cAMP production (hSecR; R6.37A, ref [8]): No effect on secretin mediated cAMP production

Q: With corticotropin-releasing factor [CRF] as the molecule, how does the “Effect compared with WT: cAMP potency (Gs)” value (hCRF-1R; K6.37A) read?
A: Its value is “Increased CRF mediated cAMP potency (Gs)”.

Q: What about the “Effect compared with WT: pERK1/2 (Gi)” value (hCRF-1R; K6.37A) of the same molecule?
A: The value was “reduced pERK1/2 (Gi)”.

Q: Which results are given for “urocortin: agonist at hCRF-1R (DNPSLSIDLTFHLLRTLLELARTQSQRERAEQNRIIFDSV; ends and bridges not checked; UniProt P55089 83-122, looked up)”?
A: Effect compared with WT: IP3 (Gq) (hCRF-1R; K6.40A): reduced IP3 (Gq); Effect compared with WT: cAMP (Gs) (hCRF-1R; K6.40A): Increased urocortin mediated cAMP (Gs)

Q: For “glucagon: peptide agonist of the glucagon receptor”, which “Effect compared with WT: potency in CRE reporter activity assay” value (rGCGR; E7.63A) is on record?
A: The value was “Enhanced basal activity and enhanced potency in glucagon mediated CRE reporter activity assay”.

Q: And the “Effect compared with WT: potency in CRE reporter activity assay” value (rGCGR; N7.61A)?
A: The value was “Enhanced potency in glucagon mediated CRE reporter activity assay”.

Q: And the “Effect compared with WT: CRE reporter activity” value (rGCGR; R6.37A)?
A: Its value is “Enhanced glucagon mediated CRE reporter activity (potency and Emax)”.

Q: What about the “Effect compared with WT: affinity” value (hGCGR; K4.64L) of the same molecule?
A: Its value is “Reduced glucagon affinity”.

Q: And the “Effect compared with WT: expression and affinity” value (hGCGR; R3.30A)?
A: The value was “Reduced expression and glucagon affinity”.

Q: What about the “Effect compared with WT: expression and affinity” value (hGCGR; R5.40A) of the same molecule?
A: The value was “Reduced expression and glucagon affinity”.

Q: Which results are given for vasoactive intestinal polypeptide [VIP]?
A: Effect compared with WT: cAMP potency (hVPAC2R; R6.37A): Reduced VIP mediated cAMP potency; Effect compared with WT: cAMP potency (hVPAC2R; R6.40A): Reduced VIP mediated cAMP potency; Effect compared with WT: cAMP production (hVPAC1R; E7.63A, ref [13]): Decreased VIP mediated cAMP production; Effect compared with WT: cAMP production (hVPAC1R; R6.37A, ref [13]): No effect on VIP mediated cAMP production; Effect compared with WT: IP3 production (hVPAC1R; R6.40A, ref [36]): Reduced VIP mediated IP3 production; Effect compared with WT: cAMP (hVPAC1R; R6.40A, ref [36]): no effect on cAMP; Effect compared with WT: cAMP production (hVPAC1R; Y3.53A, ref [55]): Reduced VIP mediated cAMP production; Effect compared with WT: cAMP (hVPAC1R; Y6.35A, ref [13]): No effect on VIP mediated cAMP

B1: parathyroid hormone (peptide, UniProt P01270 32-115, looked up)
Parathyroid hormone: SVSEIQLMHNLGKHLNSMERVEWLRKKLQDVHNFVALGAPLAPRDAGSQRPRKKEDNVLVESHEKSLGEADKADVNVLTKAKSQ
modifications: Parathyroid hormone
Q: For B1, which “Effect compared with WT: cAMP” value (oPTH-1R; E7.63 K) is on record?
A: Its value is “No effect on PTH mediated cAMP”.

Q: What about the “Effect compared with WT: cAMP production” value (oPTH-1R; H2.52A) of the same molecule?
A: The value was “No effect on PTH-1 cAMP production”.

Q: And the “Effect compared with WT: cAMP” value (oPTH-1R; R4.64A)?
A: The value was “No effect on PTH mediated cAMP”.
